Entries after “also recorded” stand apart in the source; their conditions may differ. Read-outs that look alike come from different tables or passages of the source.
Columns and labels:
[1] = established from VigiBase, SIDER, Elsevier drug information and FDA prescribing information
[2] = system: rat primary cortical neurons; test: MEA hazard scoring in rat primary cortical neuronal cultures; details: for hazard classification in the hazard scoring system: rat primary neurons on MEA; for Area.Under.Cross.Correlation Lower.TI / Area.Under.Cross.Correlation Upper.TI / Burst.Duration...Avg.(s. Lower.TI) / Burst.Duration...Avg.(s. Upper.TI) / Mean.Firing.Rate..Hz. Lower.TI / Mean.Firing.Rate..Hz. Upper.TI / Median.Mean.ISI Lower.TI / Median.Mean.ISI Upper.TI: statistical tolerance interval of the ΔΔ% effect, One-sided interval
Protocol: (§1) At DIV28, spontaneous neuronal activity obtained for 30 min in culture solution was defined as the baseline.
(§2) Data analysis was captured using AxIs suite software (Axion Biosystems Inc., version 3.6.2) and further analyzed using GraphPad Prism (version 9.00; GraphPad Software Inc., San Diego, CA). […] An active well should have more than 40% active electrodes. All wells below this threshold were discarded upon these quality criteria. For the downstream statistical analysis, the data on each MEA parameter was first expressed as the ratio of exposed wells (percentage change between baseline and the treatment) and then normalized to the average of the control within the same plate. i.e., Baseline corrected ratios of n= 7 or eight wells were averaged per condition. Each well of the MEA served as its own control, and the changes in the electrical activity elicited by the treatments were expressed as a percentage of that control activity and normalized to the wells treated with the vehicle control dimethyl sulfoxide (DMSO). […] Differences were determined using the non-parametric Wilcoxon Mann Whitney test; p-values below 0.05 were considered significant. Data are expressed as means ± S.E.M.
(§3) Thereafter, based on the effects of vehicles and positive controls, we determined the cut-off points between the different effect zones according to the key parameters selected as described in the previous subsection. The zones were defined as follows. The “no effect” zone reflects parameter changes that are most likely within vehicle variability. The “mild” and “strong” zones are differentiated bidirectionally showing mild and strong effects.
(§4) The respective hazard class was determined by a cumulative scoring of individual parameters using a scoring matrix, which was based on the following three fundamental components: (1) selection of the six key relevant parameters, (2) defining the cutoffs for the level of effect, and (3) defining weighted points per parameter for the level of hazard potential. The scoring matrix concluded with the addition of a weighted point algorithm to discriminate distinct degrees of neuronal hazard. […] The weighted points were defined on the importance of a parameter (and the direction of effect), as well as the identification of an expected hazard for different pharmacological modes of action. The overall hazard score is derived from the sum of all weighted parameters, which could be converted into a specific hazard label. The weighted points and total score range associated with the various hazard labels were optimized using an iterative process.

[3] = Supplementary Table S1; cited from earlier work
[4] = ref National library of medicine, Daylimed; cited from earlier work
[5] = seizure ADR frequency in SIDER; ref Campillos et al., 2008; Kuhn et al., 2010; cited from earlier work
[6] = WHO adverse drug reactions VigiBase; ref Kumlien and Lundberg, 2010; cited from earlier work
[7] = system: rat primary cortical neurons
Protocol: as §1, §2, §3, §4

| Compound | Classification* (degree of seizure risk) [1] | Free Cmax highest [3] | FDA prescription information at therapeutic dose (Convulsion/ Seizure/Lower the seizure threshold/withdrawal) [4] | SIDER ADR on-/off-label [5] | Percentage seizures of total number of ADRs [6] | hazard score group in Figure 3 [7] | further results |
| --- | --- | --- | --- | --- | --- | --- | --- |
| N=C(N)NC(=O)c1nc(Cl)c(N)nc1N [Amiloride] | No risk | 74.6 nM | not found on label | not found on label | 0.3506% | – | hazard classification in the hazard scoring system [2]: high seizure risk; firing rate (weighted mean firing rate) in MEA recordings ([2]; rodent cortical neurons in vitro): increase of activity |
| O=C(CCCl)NCc1ccccc1 [Beclamide] | Low risk | – | – | – | 0% | – | hazard classification in the hazard scoring system [2]: high hazard |
| O=C1CN=C(c2ccccc2Cl)c2cc([N+](=O)[O-])ccc2N1 [Clonazepam] | Risk | 12 nM | on label | not found on label | 2.831% | Neuro Active to hazard | hazard classification in the hazard scoring system [2]: hazards |
| CN1C(=O)CN=C(c2ccccc2)c2cc(Cl)ccc21 [Diazepam] | – | – | On label | – | – | Neuro Active to high hazard | – |
| CN1C[C@H](C(=O)N[C@]2(C)O[C@@]3(O)[C@@H]4CCCN4C(=O)[C@H](Cc4ccccc4)N3C2=O)C=C2c3cccc4[nH]cc(c34)C[C@H]21 [Ergotamine] | Risk | 0.4 nM | not found on label | not found on label | 0.8818% | Neuro Active to high hazard | – |
| NCC1(CC(=O)O)CCCCC1 [Gabapentin] | Risk | 2080 nM | On label | postmarketing | 1.766% | Neuro Active to high hazard | – |
| NCC(=O)O [Glycine] | – | – | not found on label | no frequency information | – | Neuro Active to hazard | – |
| COc1cc(C(C)=O)ccc1OCCCN1CCC(c2noc3cc(F)ccc23)CC1 [Iloperidone] | Low risk | 12 nM | not found on label | not found on label | 1.653% | – | – |
| CNC1(c2ccccc2Cl)CCCCC1=O (stereo not shown) [Ketamine] | Low risk | 1740 nM | not found on label | no frequency information | 1.967% | – | – |
| Nc1nnc(-c2cccc(Cl)c2Cl)c(N)n1 [Lamotrigine] | Risk | 8600 nM | On label | 1.9% - 4% | 7.325% | – | – |
| O=C1Nc2ccc(Cl)cc2C(c2ccccc2Cl)=NC1O (stereo not shown) [Lorazepam] | Risk | 22 nM | on label | postmarketing — 0.769% | 1.949% | – | – |
| CN1CCN(C2=Nc3ccccc3Oc3ccc(Cl)cc32)CC1 [Loxapine] | Risk | 44 nM | On label | no frequency information | 1.962% | – | – |
| NC(=O)C[S+]([O-])C(c1ccccc1)c1ccccc1 (stereo not shown) [Modafinil] | Risk | 19600 nM | not found on label | postmarketing | 1.739% | – | – |
| NCc1cc(=O)[nH]o1 [Muscimol] | Risk | – | – | – | – | – | Area.Under.Cross.Correlation Lower.TI [2]: -100; Area.Under.Cross.Correlation Upper.TI [2]: -21.99; Burst.Duration...Avg.(s. Lower.TI) [2]: -100; Burst.Duration...Avg.(s. Upper.TI) [2]: 465.5; Mean.Firing.Rate..Hz. Lower.TI [2]: -100; Mean.Firing.Rate..Hz. Upper.TI [2]: -23.34; Median.Mean.ISI Lower.TI [2]: -100; Median.Mean.ISI Upper.TI [2]: 1.885 |
| CN1CCC[C@H]1c1cccnc1 [Nicotine] | – | 180 nM | not found on label | not found on label | – | Non-Neuro Active | hazard classification in the hazard scoring system [7]: non-neuroactive |
| CCCC(C)C1(CC)C(=O)NC(=O)NC1=O (stereo not shown) [Pentobarbital] | Risk | 5100 nM | not found on label | not found on label | 3.3557% | Neuro Active to hazard | – |
| N#Cc1ccccc1-c1cc(-c2ccccn2)cn(-c2ccccc2)c1=O [Perampanel] | Low risk | 163 nM | not found on label | not found on label | 7.31% | – | hazard classification in the hazard scoring system [2]: hazards; also recorded: high hazard |
| CCOC(=O)C1(c2ccccc2)CCN(C)CC1 [Pethidine] | – | 250 nM | – | no frequency information | – | Neuro Active to hazard | – |
| CC(C)C[C@H](CN)CC(=O)O [Pregabalin] | – | – | – | – | 0.8034% | Non-Neuro Active | – |
| C[N+](C)(C)CCOC(=O)CCC(=O)OCC[N+](C)(C)C [Succinylcholine] | No risk | 170 nM | not found on label | not found on label | 0.792% | – | – |
| CNS(=O)(=O)Cc1ccc2[nH]cc(CCN(C)C)c2c1 [Sumatriptan] | Risk | 388 nM | On label | rare (<0.1%) | 0.8281% | – | – |
| Cc1ccc(C(=O)c2cc(O)c(O)c([N+](=O)[O-])c2)cc1 [Tolcapone] | No risk | 10 nM | not found on label | not found on label | 0.8264% | – | – |
| Cc1ccc(Nc2nccc(N(C)c3ccc4c(C)n(C)nc4c3)n2)cc1S(N)(=O)=O [pazopanib] | Risk | 1330 nM | not found on label | not found on label | 0.4565% | – | – |
| Picrotoxin | Risk | – | – | – | – | – | Area.Under.Cross.Correlation Lower.TI [2]: -46.52; Area.Under.Cross.Correlation Upper.TI [2]: 62.45; Burst.Duration...Avg.(s. Lower.TI) [2]: -2.013; Burst.Duration...Avg.(s. Upper.TI) [2]: 280.4; Mean.Firing.Rate..Hz. Lower.TI [2]: -10.62; Mean.Firing.Rate..Hz. Upper.TI [2]: 76.43; Median.Mean.ISI Lower.TI [2]: -29.71; Median.Mean.ISI Upper.TI [2]: 0.6132 |
